Test results published in patent US20250338846A1, “COMPOSITIONS HAVING PESTICIDAL UTILITY AND PROCESSES RELATED THERETO” (CORTEVA AGRISCIENCE, LLC, priority 2022, published 2025).

Experiments:
Assay type in all cases: in vivo
[1] = tested on: Sweet Potato Whitefly (Bemisia tabaci, BEMITA); experiment: Bioassay 2: Sweet Potato Whitefly, spray on cotton seedlings at crawler emergence, nymphs counted 7-9 days after treatment
Method: (§1) Stock solutions were prepared with Formula One as well as for each of the active ingredients individually. Test solutions were prepared from the stock solutions. Test solutions were prepared containing Formula One, the individual active ingredients, and mixtures of Formula One with each of the active ingredients. The test solutions for Formula One and the individual active ingredients were prepared by adding 500 μL of stock solution to a 25 mL glass vial, then adding 500 μL of acetone, followed by the addition of 9 mL water with 0.025% Tween®) 20 to create a 0.001% (w/v) solution. The test solutions containing mixtures of Formula One and the individual active ingredients were prepared by adding 500 μL of the active ingredient stock solution to a 25 mL glass vial, followed by 500 μL of the Formula One stock solution, then by the addition of 9 mL water with 0.025% Tween®) 20 to create a test solution containing 0.001% (w/v) Formula One and 0.001% (w/v) of the active ingredient. Each test solution was serially diluted to create desired doses of test solutions (0.001% (w/v), 0.0001% (w/v), 0.00001% (w/v), 0.000001% (w/v), 0.0000001% (w/v), and 0.00000001% (w/v)).
(§2) The test solutions were tested against SPW using the following procedure: Cotton seedlings grown in 3-inch pots, pruned so that only one true leaf remained, were used as test substrate. Adult B. tabaci were allowed to colonize the cotton plants and lay eggs for 24 hours after which all adults were removed from the plants using compressed air. Plants were monitored for egg development and, when crawler emergence was underway (>25% emergence based on visual examination using a microscope), the plants were sprayed using the test solutions and methods described above for green peach aphids (GPA). Treated plants were held in a holding room at approximately 25° C. and ambient relative humidity (RH) prior to grading. Evaluation was conducted by counting the number of developed 2-3 instar nymphs per plant under a microscope 7-9 days after treatment. Percent control was measured using Abbott's correction formula (W. S. Abbott, J. Econ. Entomol. 18 (1925), pp. 265-267) as follows:
where X=No. of live nymphs on solvent check plants and Y=No. of live nymphs on treated plants. In Table B2 the “Expected % Control” was calculated using the method described in Colby S. R., Weeds, 1967, 15, 20-22. Bioassay 3: Western Flower Thrips (Frankliniella occidentalis, FRANOC) (“WFT”).

[2] = tested on: Diamondback Moth (Plutella xylostella, PLUTMA); experiment: Bioassay 6: Diamondback Moth, artificial lepidopteran diet, live larvae after 5 days; conditions: DBM; AI alone 0.04 % w/v
Method: where X=No. of live nymphs on solvent check and Y=No. of live nymphs on treated bean segments. In Table B5 the “Expected % Control” was calculated using the method described in Colby S. R., Weeds, 1967, 15, 20-22. Bioassay 6: Beet Armyworm (Spodoptera exigua, LAPHEG) (BAW), and Diamondback Moth (Plutella xylostella, PLUTMA) (DBM).
(§3) Stock solutions were prepared with Formula One as well as for each of the active ingredients individually. Test solutions were prepared from the stock solutions. Test solutions were prepared containing Formula One, the individual active ingredients, and mixtures of Formula One with each of the active ingredients. The test solution for Formula One was prepared by adding 500 μL of the stock solution to a 25 mL glass vial, then adding 500 μL of a 9:1 mixture of acetone: water. The individual active ingredients were prepared by adding 500 μL of stock solution to a 25 mL glass vial, then adding 500 μL of a 9:1 mixture of acetone: water. The test solutions containing mixtures of Formula One and the individual active ingredients were prepared by adding 500 μL of the active ingredient stock solution to a 25 mL glass vial, followed by 500 μL of the Formula One stock solution, creating a test solution containing 4000 ppm Formula One and 0.4% (w/v) of the active ingredient. Each test solution was serially diluted to create desired doses of test solutions (0.4% (w/v), 0.04% (w/v), 0.004% (w/v), 0.0004% (w/v), 0.00004% (w/v), and 0.000004% (w/v)). In test solutions containing mixtures of Formula One and the active ingredients, the active ingredients were diluted as described above, but the Concentration of Formula One was held constant (0.4% (w/v)). The highest dose test solution (0.4% (w/v)) was discarded, leaving 5 test solution concentrations used in the test.
The test solutions were tested against BAW and DBM using the following procedure: An artificial lepidopteran diet (Multispecies Lepidopteran Diet, Southland Products) was distributed in 128-cell bioassay trays (Frontier Agricultural Sciences™). 50 μL of test solution was pipetted into a cell in the bioassay tray. (The test solution doses of 0.04% (w/v), 0.004% (w/v), 0.0004% (w/v), 0.00004% (w/v), and 0.000004% (w/v) translated to concentrations of 5, 0.5, 0.05, 0.005, and 0.0005 ug/cm^2 on the diet, respectively.) A reference treatment (solvent check) was treated with the diluent only. […] After 5 days, the number of live larvae were recorded from each cell and percent control was measured using Abbott's correction formula (W. S. Abbott, J. Econ. Entomol. 18 (1925), pp. 265-267) as follows:
where X=No. of live larvae on solvent check and Y=No. of live larvae on treated diet. In Table B6 the “Expected % Control” was calculated using the method described in Colby S. R., Weeds, 1967, 15, 20-22. […]

[3] = tested on: Cotton Aphid (Aphis gossypii, APHIGO); experiment: Bioassay 7: Cotton Aphid, foliar spray on infested cotton seedlings, live aphids counted three days after treatment
Method: where X=No. of live larvae on solvent check and Y=No. of live larvae on treated diet. In Table B6 the “Expected % Control” was calculated using the method described in Colby S. R., Weeds, 1967, 15, 20-22. Bioassay 7: Cotton Aphid (Aphis gossypii, APHIGO) (“CA”).
Stock solutions of Formula One and one or more of the active ingredients were prepared at concentrations of 1 mg/mL using a 1:1 mixture of acetone: methanol as a diluent. The stock solutions were prepared with Formula One as well as for each of the active ingredients individually. Test solutions were prepared from the stock solutions. Test solutions were prepared containing Formula One, the individual active ingredients, and mixtures of Formula One with each of the active ingredients. The test solutions for Formula One and the individual active ingredients were prepared by adding 1.5 mL of stock solution to a 30 mL glass vial, then adding 1.5 mL of 1:1 acetone: methanol solvent, followed by the addition of 27 mL water with 0.025% Tween® 20 to create a […]. Each test solution was serially diluted to create desired doses of test solutions ranging from 0.000001 to 0.0025% (w/v). The test solutions were tested against CA using the following procedure: cotton seedlings were grown in 3-inch pots with one true leaf (2-5 cm in diameter) were used as test substrate. The seedlings were infested with 20-50 CA (wingless adult and nymph stages) one day prior to chemical application. Four pots with individual seedlings were used for each treatment. A hand-held aspirator-type sprayer was used for spraying a solution to both sides of […] leaves until runoff. Reference plants (solvent check) were sprayed with the diluent only (0.025% Tween® 20 and 10% acetone:methanol (1:1) in water). Treated plants were held in a holding room for three days at approximately 25° C. and ambient relative humidity (RH about 20% to about 45%) prior to grading. Evaluation was conducted by counting the number of live aphids per plant under a microscope three days after treatment. Percent control was measured using Abbott's correction formula (W. S. Abbott, J. Econ. Entomol. 18 (1925), pp. 265-267) as follows:
(§4) where X=No. of live aphids on solvent check plants and Y=No. of live aphids on treated plants. In Table B1 the “Expected % Control” was calculated using the method described in Colby S. R., Weeds, 1967, 15, 20-22. Bioassay 8: Sweet Potato Whitefly (Bemisia tabaci, BEMITA) (“SPW”).

[4] = tested on: Sweet Potato Whitefly (Bemisia tabaci, BEMITA); experiment: Bioassay 8: Sweet Potato Whitefly, spray on cotton seedlings at crawler emergence, nymphs counted 7-9 days after treatment; conditions: AI alone 0.1 (10^-5) Wt %
Method: as §4
as §1, with “0.0000001% (w/v), […] and 0.00000001%” for “0.0000001% (w/v), and 0.00000001%”
as §2
(§5) where X=No. of live nymphs on solvent check plants and Y=No. of live nymphs on treated plants. In Table B2 the “Expected % Control” was calculated using the method described in Colby S. R., Weeds, 1967, 15, 20-22. Bioassay 9: Diamondback Moth (Plutella xylostella, PLUTMA) (DBM).

[5] = tested on: Diamondback Moth (Plutella xylostella, PLUTMA); experiment: Bioassay 9: Diamondback Moth, leaves of track-sprayed cabbage plants, mortality and feeding damage scored
Method: as §5, §3
Cabbage seedlings, grown in 3-inch pots with 2-3 small (3-5 centimeter (cm)) true leaves, were used as test substrate. Cabbage plants were sprayed with desired concentrations of Formula One and active ingredients or their mixtures using a track Sprayer. Reference plants (solvent check) were sprayed with diluent only (0.025% Tween® 20 and 10% acetone:methanol (1:1) in water). The sprayed cabbage plants were allowed to dry for 1 hour, after which leaves from each treatment were placed in a cell of a plastic tray. One leaf per cell and 8 replicates for each cell. The tested doses ranged between 0.000001% (w/v) to 0.0002% (w/v). One 2nd instar DBM larvae were placed in each cell of the tray and allowed to feed on the cabbage foliage for […] after which the mortality and feeding damage were scored. Test trays were held at approximately 26° C. and ambient relative humidity (RH) prior to grading. The number of live larvae were recorded from each cell and percent control was measured using Abbott's correction formula (W. S. Abbott, J. Econ. Entomol. 18 (1925), pp. 265-267) as follows:
where X=No. of live larvae on solvent check and Y=No. of live larvae on treated diet. In Table B6 the “Expected % Control” was calculated using the method described in Colby S. R., Weeds, 1967, 15, 20-22.

Molecule: C[C@]1(COC(=O)C2CC2)[C@@H]2C[C@H](O)[C@@]3(C)Oc4cc(-c5cccnc5)oc(=O)c4[C@H](O)[C@@H]3[C@@]2(C)CC[C@@H]1OC(=O)C1CC1 [Afidopyropen]
- Average % Control AI ([1]; AI alone 0.1 (10-5) % w/v): 0%
- Average % Control AI ([1]; AI alone 1 (10-5) % w/v): 0%
- Average % Control AI [2]: 25%

Molecule: CC1(C)[C@H](C(=O)O[C@H](C#N)c2cccc(Oc3ccccc3)c2)[C@@H]1C=C(Br)Br [Deltamethrin]
- Average % Control A1 ([3]; AI alone 0.78 (10^-5) Wt %): 26.73%
- Average % Control A1 ([3]; AI alone 2.5 (10^-5) Wt %): 34.23%
- Average % Control A1 ([3]; AI alone 10 (10^-5) Wt %): 34.23%
- Average % Control A1 [4]: 35.94%
- Average % Control AI ([5]; AI alone 5 (10^-5) Wt %): 30.43%
- Average % Control AI ([5]; AI alone 10 (10^-5) Wt %): 15.22%
- Average % Control AI ([5]; AI alone 20 (10^-5) Wt %): 30.43%

Molecule: Cc1cc(C)c(C2=C(OC(=O)CC(C)(C)C)C3(CCCC3)OC2=O)c(C)c1 [Spiromesifen]
- Average % Control AI ([1]; AI alone 0.1 (10-5) % w/v): 0%
- Average % Control AI [2]: 0%

Molecule: Tetraniliprole
- Average % Control A1 ([3]; AI alone 0.1 (10^-5) Wt %): 44.54%
- Average % Control A1 ([3]; AI alone 0.8 (10^-5) Wt %): 7.23%
- Average % Control A1 [4]: 40.00%
- Average % Control AI ([5]; AI alone 0.1 (10^-5) Wt %): 16.67%
- Average % Control AI ([5]; AI alone 1 (10^-5) Wt %): 50.00%
- Average % Control AI ([5]; AI alone 5 (10^-5) Wt %): 41.67%
